Source: ChEMBL document CHEMBL1201862, “PubChem BioAssay data set” (2004)
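Results reflect a 48-hour exposure of cells in 96-well plates to compound at five concentrations. GI50 marks 50% less growth.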 Active and inactive are the calls of the source. No stated cut-off is given here; in the data, active = GI50 up to about 1.1 µM and inactive = higher.

What was measured:
Assay in all cases: inhibition of tumour cell growth, NCI panel, 48 h
786-0 = system: 786-0
A498 = system: A498
A549 = system: A549
ACHN = system: ACHN
CAKI-1 = system: CAKI-1
CCRF-CEM = system: CCRF-CEM
COLO 205 = system: COLO 205
DU-145 = system: DU-145
EKVX = system: EKVX
HCC 2998 = system: HCC 2998
HCT-116 = system: HCT-116
HCT-15 = system: HCT-15
HL-60 = system: HL-60
HOP-62 = system: HOP-62
HOP-92 = system: HOP-92
HT-29 = system: HT-29
Hs-578T = system: Hs-578T
IGROV-1 = system: IGROV-1
K562 = system: K562
KM12 = system: KM12
LOX IMVI = system: LOX IMVI
M14 = system: M14
MCF7 = system: MCF7
MDA-MB-231 = system: MDA-MB-231
MDA-N = system: MDA-N
MOLT-4 = system: MOLT-4
Malme-3M = system: Malme-3M
NCI-H23 = system: NCI-H23
NCI-H460 = system: NCI-H460
NCI/ADR-RES = system: NCI/ADR-RES
OVCAR-3 = system: OVCAR-3
OVCAR-4 = system: OVCAR-4
OVCAR-5 = system: OVCAR-5
OVCAR-8 = system: OVCAR-8
PC-3 = system: PC-3
RPMI-8226 = system: RPMI-8226
SF-268 = system: SF-268
SF-295 = system: SF-295
SF-539 = system: SF-539
SK-MEL-28 = system: SK-MEL-28
SK-MEL-2 = system: SK-MEL-2
SK-MEL-5 = system: SK-MEL-5
SK-OV-3 = system: SK-OV-3
SN12C = system: SN12C
SNB-19 = system: SNB-19
SNB-75 = system: SNB-75
SR = system: SR
SW-620 = system: SW-620
T47D = system: T47D
TK-10 = system: TK-10
U-251 = system: U-251
UACC-257 = system: UACC-257
UO-31 = system: UO-31
MDA-MB-435 = system: MDA-MB-435
NCI-H226 = system: NCI-H226
NCI-H522 = system: NCI-H522
RXF 393 = system: RXF 393
UACC-62 = system: UACC-62

## Cc1cccc(N(C(=O)Nc2ccc(Cl)c(Cl)c2)C2=NCC(C)S2)c1 (configuration not stated)
786-0
  GI50: 31.8 µM (inactive)
A498
  GI50: 57.8 µM (inactive)
A549
  GI50: 38.9 µM (inactive)
ACHN
  GI50: 50.1 µM (inactive)
CAKI-1
  GI50: 46.5 µM (inactive)
CCRF-CEM
  GI50: 46.1 µM (inactive)
COLO 205
  GI50: 44.7 µM (inactive)
DU-145
  GI50: > 100 µM (inactive)
EKVX
  GI50: 84.7 µM (inactive)
HCC 2998
  GI50: 36.8 µM (inactive)
HCT-116
  GI50: 43.1 µM (inactive)
HCT-15
  GI50: 41.6 µM
HL-60
  GI50: 41.6 µM (inactive)
HOP-62
  GI50: > 100 µM (inactive)
HOP-92
  GI50: 38.6 µM (inactive)
HT-29
  GI50: 11.4 µM (inactive)
Hs-578T
  GI50: 32.5 µM (inactive)
IGROV-1
  GI50: 69.7 µM (inactive)
K562
  GI50: 24.8 µM (inactive)
KM12
  GI50: 18.9 µM (inactive)
LOX IMVI
  GI50: 18.3 µM (inactive)
M14
  GI50: 0.55 µM (active)
MCF7
  GI50: 17 µM (inactive)
MDA-MB-231
  GI50: 29.8 µM (inactive)
MDA-N
  GI50: 32.9 µM (inactive)
MOLT-4
  GI50: 16.2 µM (inactive)
Malme-3M
  GI50: 60.1 µM (inactive)
NCI-H23
  GI50: 37.3 µM (inactive)
NCI-H460
  GI50: 41.9 µM (inactive)
NCI/ADR-RES
  GI50: 28 µM (inactive)
OVCAR-3
  GI50: 74.5 µM (inactive)
OVCAR-4
  GI50: 41.6 µM (inactive)
OVCAR-5
  GI50: > 100 µM (inactive)
OVCAR-8
  GI50: 60.4 µM (inactive)
PC-3
  GI50: 43.9 µM (inactive)
RPMI-8226
  GI50: 49.1 µM (inactive)
SF-268
  GI50: 23.2 µM (inactive)
SF-295
  GI50: 78.3 µM (inactive)
SF-539
  GI50: 22.7 µM (inactive)
SK-MEL-28
  GI50: 38.6 µM (inactive)
SK-MEL-2
  GI50: 23.8 µM (inactive)
SK-MEL-5
  GI50: 17.5 µM (inactive)
SK-OV-3
  GI50: > 100 µM (inactive)
SN12C
  GI50: 59.3 µM (inactive)
SNB-19
  GI50: > 100 µM (inactive)
SNB-75
  GI50: 54.3 µM (inactive)
SR
  GI50: 32.6 µM (inactive)
SW-620
  GI50: 32.1 µM (inactive)
T47D
  GI50: 9.84 µM (inactive)
TK-10
  GI50: 23.8 µM (inactive)
U-251
  GI50: 62.5 µM (inactive)
UACC-257
  GI50: 42.9 µM (inactive)
UO-31
  GI50: > 100 µM (inactive)

## COc1cccc(N/C(C)=C2/CCOC2=O)c1
A498
  GI50: > 10 µM (inactive)
A549
  GI50: > 10 µM (inactive)
ACHN
  GI50: 5.33 µM (inactive)
CAKI-1
  GI50: > 10 µM (inactive)
CCRF-CEM
  GI50: > 10 µM (inactive)
COLO 205
  GI50: > 10 µM (inactive)
DU-145
  GI50: > 10 µM (inactive)
EKVX
  GI50: > 10 µM (inactive)
HCC 2998
  GI50: > 10 µM (inactive)
HCT-116
  GI50: > 10 µM (inactive)
HCT-15
  GI50: 5.08 µM
HL-60
  GI50: > 10 µM (inactive)
HOP-62
  GI50: > 10 µM (inactive)
HT-29
  GI50: > 10 µM (inactive)
Hs-578T
  GI50: > 10 µM (inactive)
IGROV-1
  GI50: > 10 µM (inactive)
KM12
  GI50: > 10 µM (inactive)
LOX IMVI
  GI50: > 10 µM (inactive)
M14
  GI50: > 10 µM (inactive)
MCF7
  GI50: > 10 µM (inactive)
MDA-MB-231
  GI50: 6.56 µM (inactive)
MDA-MB-435
  GI50: > 10 µM (inactive)
MDA-N
  GI50: > 10 µM (inactive)
MOLT-4
  GI50: > 10 µM (inactive)
Malme-3M
  GI50: > 10 µM (inactive)
NCI-H226
  GI50: > 10 µM (inactive)
NCI-H23
  GI50: > 10 µM (inactive)
NCI-H460
  GI50: > 10 µM (inactive)
NCI-H522
  GI50: > 10 µM (inactive)
NCI/ADR-RES
  GI50: > 10 µM (inactive)
OVCAR-3
  GI50: > 10 µM (inactive)
OVCAR-4
  GI50: > 10 µM (inactive)
OVCAR-5
  GI50: > 10 µM (inactive)
OVCAR-8
  GI50: > 10 µM (inactive)
PC-3
  GI50: > 10 µM (inactive)
RPMI-8226
  GI50: > 10 µM (inactive)
RXF 393
  GI50: > 10 µM (inactive)
SF-268
  GI50: > 10 µM (inactive)
SF-295
  GI50: > 10 µM (inactive)
SF-539
  GI50: > 10 µM (inactive)
SK-MEL-28
  GI50: > 10 µM (inactive)
SK-MEL-2
  GI50: > 10 µM (inactive)
SK-MEL-5
  GI50: > 10 µM (inactive)
SK-OV-3
  GI50: > 10 µM (inactive)
SN12C
  GI50: > 10 µM (inactive)
SNB-19
  GI50: > 10 µM (inactive)
SNB-75
  GI50: > 10 µM (inactive)
SR
  GI50: > 10 µM (inactive)
SW-620
  GI50: > 10 µM (inactive)
T47D
  GI50: > 10 µM (inactive)
TK-10
  GI50: > 10 µM (inactive)
U-251
  GI50: > 10 µM (inactive)
UACC-62
  GI50: > 10 µM (inactive)
UO-31
  GI50: 8.15 µM (inactive)
